In brackets after ≈: the same amount, converted by molar mass. Activity calls are given as the source filed them. The rule behind the calls is not given here.
Columns and labels:
Escherichia coli [1] = test: Antibacterial activity against hyperpermeable Escherichia coli D22 harboring LpxC mutant after 20 to 22 hrs
Klebsiella pneumoniae [2] = test: Antibacterial activity against Klebsiella pneumoniae 1161486 harboring GyrA S83I mutant after 20 to 22 hrs; format: functional
L5178Y [3] = test: Genotoxicity in mouse L5178Y cells after 3 hrs in presence of S9 fraction by micronucleus test; format: toxicity, cell-based; details: s9, 3 h
Staphylococcus aureus [4] = test: Antibacterial activity against Staphylococcus aureus RN4220 harboring GyrA D83N/ParC D79N double mutant after 20 to 22 hrs; format: functional
Escherichia coli [5] = test: Antibacterial activity against tolC-deficient Escherichia coli K-12 MG1655 after 20 to 22 hrs; format: functional; details: K-12 substr. MG1655
Klebsiella pneumoniae [6] = test: Antibacterial activity against Klebsiella pneumoniae 1161486 after 20 to 22 hrs; format: functional
[7] = Drug metabolism in mouse liver microsomes at 5 uM after 20 mins in presence of NADPH; format: ADME, microsome; details: read-out: Drug metabolism
Cytochrome P450 3A4 [8] = target: T1, Cytochrome P450 3A4 (Homo sapiens, UniProt P08684); test: Inhibition of CYP3A4-mediated midazolam metabolism in human liver microsomes
Acinetobacter baumannii [9] = test: Antibacterial activity against Acinetobacter baumannii BM4652 harboring adeABC/adeIJK deletion mutant after 20 to 22 hrs; format: functional
[10] = Metabolic stability in mouse plasma at 1 uM after 4 hrs; format: ADME, cell-free; details: read-out: Stability
[11] = target: Voltage-gated inwardly rectifying potassium channel KCNH2 (Homo sapiens, UniProt Q12809); test: Inhibition of human ERG transfected in CHO cells by patch clamp method
Staphylococcus aureus [12] = test: Antibacterial activity against methicillin-resistant Staphylococcus aureus ATCC 33592 after 20 to 22 hrs in presence of 50% mouse serum; format: functional, organism-based
Staphylococcus aureus [13] = test: Antibacterial activity against methicillin-resistant Staphylococcus aureus ATCC 33592 after 20 to 22 hrs; format: functional
Staphylococcus aureus [14] = test: Resistance factor, ratio of MIC for Staphylococcus aureus RN4220 harboring ParC S80F/GyrA S84L double mutant to MIC for wild type Staphylococcus aureus RN4220; format: functional
[15] = Apparent permeability across human Caco2 cells; details: Caco-2
Escherichia coli [16] = test: Resistance factor, ratio of MIC for Escherichia coli K-12 MG1655 harboring GyrA S83L/D87N/ParC S80I triple mutant to MIC for wild type Escherichia coli K-12 MG1655; format: functional, K-12 substr. MG1655
Cytochrome P450 3A4 [17] = target: T1, Cytochrome P450 3A4; test: Inhibition of CYP3A4-mediated testosterone metabolism in human liver microsomes
Klebsiella pneumoniae [18] = test: Antibacterial activity against tolC-deficient Klebsiella pneumoniae 1161486a after 20 to 22 hrs; format: functional
Escherichia coli [19] = test: Antibacterial activity against Escherichia coli K-12 MG1655 after 20 to 22 hrs; details: K-12 substr. MG1655
Klebsiella pneumoniae [20] = test: Antibacterial activity against Klebsiella pneumoniae 1161486 harboring GyrA S83I/ParC S80I double mutant after 20 to 22 hrs; format: functional
Escherichia coli [21] = test: Antibacterial activity against tolC-deficient fluoroquinolones-sensitive Escherichia coli JC7623 clinical isolate harboring wild type DNA gyrase after 20 to 22 hrs
Pseudomonas aeruginosa [22] = test: Antibacterial activity against Pseudomonas aeruginosa PAO1 after 20 to 22 hrs; format: functional
Staphylococcus aureus [23] = test: Antibacterial activity against methicillin-resistant Staphylococcus aureus ATCC 33592 after 20 to 22 hrs in presence of 50% calf fetal serum; format: functional, organism-based
Staphylococcus aureus [24] = test: Antibacterial activity against Staphylococcus aureus RN4220 harboring GyrA D83N mutant after 20 to 22 hrs; format: functional
L5178Y [25] = test: Genotoxicity in mouse L5178Y cells after 23 hrs in absence of S9 fraction by micronucleus test; format: toxicity, cell-based
Staphylococcus aureus [26] = test: Antibacterial activity against Staphylococcus aureus RN4220 harboring GyrB D437N mutant after 20 to 22 hrs; format: functional
Escherichia coli [27] = test: Antibacterial activity against ESBL producing Escherichia coli ATCC 35218 after 20 to 22 hrs; format: functional
Klebsiella pneumoniae [28] = test: Resistance factor, ratio of MIC for Klebsiella pneumoniae 1161486 harboring GyrA S83I/ParC S80I double mutant to MIC for wild type Klebsiella pneumoniae 1161486; format: functional
[29] = Drug metabolism in rat liver microsomes at 5 uM after 20 mins in presence of NADPH; format: ADME, microsome; details: read-out: Drug metabolism
[30] = Thermodynamic aqueous solubility of the compound at pH 7.4; details: aqueous solution
Klebsiella pneumoniae [31] = test: Antibacterial activity against Klebsiella pneumoniae 1161486 harboring GyrA S83F/D87V/ParC S80I triple mutant after 20 to 22 hrs; format: functional
Staphylococcus aureus [32] = test: Resistance factor, ratio of MIC for Staphylococcus aureus RN4220 harboring GyrB D437N mutant to MIC for wild type Staphylococcus aureus RN4220; format: functional
[33] = Metabolic stability in rat plasma at 1 uM after 4 hrs; format: ADME, cell-free; details: read-out: Stability
Staphylococcus aureus [34] = test: Resistance factor, ratio of MIC for Staphylococcus aureus RN4220 harboring ParC S80F mutant to MIC for wild type Staphylococcus aureus RN4220; format: functional
[35] = Drug metabolism in human liver microsomes at 5 uM after 20 mins in presence of NADPH; format: ADME, microsome; details: read-out: Drug metabolism
Klebsiella pneumoniae [36] = test: Resistance factor, ratio of MIC for Klebsiella pneumoniae 1161486 harboring GyrA S83F/D87V/ParC S80I triple mutant to MIC for wild type Klebsiella pneumoniae 1161486; format: functional
Escherichia coli [37] = test: Inhibition of DNA synthesis in tolC-deficient Escherichia coli K-12 MG1655 at MIC to 8 times MIC after 5 to 120 mins by [methyl-3H]-thymidine incorporation assay; format: functional, organism-based; details: K-12 substr. MG1655
Staphylococcus aureus [38] = test: Resistance factor, ratio of MIC for Staphylococcus aureus RN4220 harboring GyrA D83N mutant to MIC for wild type Staphylococcus aureus RN4220; format: functional
DNA gyrase = DNA gyrase (Escherichia coli, UniProt P0AES4+P0AES6)
Description: Inhibition of Escherichia coli DNA gyrase A2B2 using relaxed pNO1 as substrate

Staphylococcus aureus [39] = test: Antibacterial activity against Staphylococcus aureus RN4220 harboring ParC S80F/GyrA S84L double mutant after 20 to 22 hrs; format: functional
[40] = Cytotoxicity against human HepG2 cells assessed as decrease in cell viability after 40 hrs by Celltiter Glo assay
Klebsiella pneumoniae [41] = test: Resistance factor, ratio of MIC for Klebsiella pneumoniae 1161486 harboring GyrA S83I mutant to MIC for wild type Klebsiella pneumoniae 1161486; format: functional
Escherichia coli [42] = test: Resistance factor, ratio of MIC for 4 times MIC-treated tolC-deficient Escherichia coli ATCC 25922 to MIC for tolC-deficient Escherichia coli ATCC 25922; format: functional
Klebsiella pneumoniae [43] = test: Antibacterial activity against wild type Klebsiella pneumoniae 1161486 after 20 to 22 hrs; format: functional
Staphylococcus aureus [44] = test: Antibacterial activity against wild type Staphylococcus aureus RN4220 after 20 to 22 hrs; format: functional
Escherichia coli [45] = test: Antibacterial activity against tolC-deficient fluoroquinolones-resistant Escherichia coli W4753 clinical isolate harboring DNA gyrase S83L/D87N/ParC S80I/ParE S458A mutant after 20 to 22 hrs
Staphylococcus aureus [46] = test: Antibacterial activity against Staphylococcus aureus RN4220 harboring ParC S80F mutant after 20 to 22 hrs; format: functional
Acinetobacter baumannii [47] = test: Antibacterial activity against Acinetobacter baumannii BM4454 after 20 to 22 hrs; format: functional
Escherichia coli [48] = test: Antibacterial activity against Escherichia coli K-12 MG1655 harboring GyrA S83L/D87N/ParC S80I triple mutant after 20 to 22 hrs; format: functional; details: K-12 substr. MG1655
Staphylococcus aureus [49] = test: Resistance factor, ratio of MIC for Staphylococcus aureus RN4220 harboring GyrA D83N/ParC D79N double mutant to MIC for wild type Staphylococcus aureus RN4220; format: functional
Escherichia coli [50] = test: Resistance factor, ratio of MIC for 4 times MIC-treated tolC-deficient Escherichia coli ATCC 25922 harboring DR76_3503 Q47H mutant to MIC for tolC-deficient Escherichia coli ATCC 25922; format: functional
Pseudomonas aeruginosa [51] = test: Antibacterial activity against Pseudomonas aeruginosa PAO750 harboring mexAB-oprM/mexCD-oprJ/mexEF-oprN/mexXY/opmH/mexJK/pscC deletion mutant after 20 to 22 hrs; format: functional

T1 sequence (P08684 whole entry): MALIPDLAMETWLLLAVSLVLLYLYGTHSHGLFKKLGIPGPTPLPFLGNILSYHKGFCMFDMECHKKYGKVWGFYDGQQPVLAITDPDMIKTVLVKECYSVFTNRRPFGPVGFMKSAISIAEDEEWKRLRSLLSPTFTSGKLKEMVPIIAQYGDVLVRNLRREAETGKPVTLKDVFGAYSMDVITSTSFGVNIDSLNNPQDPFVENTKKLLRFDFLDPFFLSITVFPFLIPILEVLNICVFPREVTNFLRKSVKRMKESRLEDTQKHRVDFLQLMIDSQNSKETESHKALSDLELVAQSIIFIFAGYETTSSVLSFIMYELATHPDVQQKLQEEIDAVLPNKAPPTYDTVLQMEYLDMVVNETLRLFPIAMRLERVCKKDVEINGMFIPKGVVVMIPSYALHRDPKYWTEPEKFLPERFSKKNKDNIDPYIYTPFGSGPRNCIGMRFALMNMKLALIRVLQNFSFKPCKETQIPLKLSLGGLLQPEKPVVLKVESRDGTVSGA
Voltage-gated inwardly rectifying potassium channel KCNH2, sequence (Q12809 whole entry): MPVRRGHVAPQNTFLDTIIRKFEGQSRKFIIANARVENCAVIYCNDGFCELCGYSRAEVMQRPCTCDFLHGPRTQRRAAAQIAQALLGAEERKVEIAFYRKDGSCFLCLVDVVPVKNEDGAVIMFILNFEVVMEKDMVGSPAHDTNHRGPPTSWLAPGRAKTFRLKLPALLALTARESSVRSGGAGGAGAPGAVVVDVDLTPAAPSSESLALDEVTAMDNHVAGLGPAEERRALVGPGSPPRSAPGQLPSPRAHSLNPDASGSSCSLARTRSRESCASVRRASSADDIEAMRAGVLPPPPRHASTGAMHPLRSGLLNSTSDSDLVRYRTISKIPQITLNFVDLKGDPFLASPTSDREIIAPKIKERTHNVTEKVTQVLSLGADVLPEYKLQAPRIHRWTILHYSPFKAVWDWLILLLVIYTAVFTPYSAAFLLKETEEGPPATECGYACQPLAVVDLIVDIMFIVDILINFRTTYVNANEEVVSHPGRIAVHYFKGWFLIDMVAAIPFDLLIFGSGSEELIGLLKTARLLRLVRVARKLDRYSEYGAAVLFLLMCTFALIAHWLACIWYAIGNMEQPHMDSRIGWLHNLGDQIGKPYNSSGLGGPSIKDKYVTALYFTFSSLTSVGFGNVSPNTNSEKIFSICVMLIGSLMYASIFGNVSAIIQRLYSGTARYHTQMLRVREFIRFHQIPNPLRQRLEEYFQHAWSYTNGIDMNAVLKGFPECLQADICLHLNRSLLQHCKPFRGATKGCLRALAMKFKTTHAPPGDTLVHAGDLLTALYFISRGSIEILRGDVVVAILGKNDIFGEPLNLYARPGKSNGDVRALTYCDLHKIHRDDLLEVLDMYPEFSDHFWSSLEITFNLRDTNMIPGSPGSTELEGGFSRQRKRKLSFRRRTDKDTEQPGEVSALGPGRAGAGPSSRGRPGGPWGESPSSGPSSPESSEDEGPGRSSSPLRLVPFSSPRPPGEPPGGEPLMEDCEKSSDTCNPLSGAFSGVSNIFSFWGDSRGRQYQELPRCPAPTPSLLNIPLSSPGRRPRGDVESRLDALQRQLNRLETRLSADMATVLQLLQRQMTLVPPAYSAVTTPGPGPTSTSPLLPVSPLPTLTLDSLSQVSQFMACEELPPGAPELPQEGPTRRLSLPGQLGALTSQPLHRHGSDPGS

SMILES: N[C@H]1CCN(c2cc3c(cc2F)n2ccnc2c(=O)n3C2CC2)C1
- MIC (Escherichia coli [1]): 2 µg/mL (≈ 6.11 µM)
- MIC (Klebsiella pneumoniae [2]): 64 µg/mL (≈ 196 µM)
- Activity (L5178Y [3]): Toxic
- MIC (Staphylococcus aureus [4]): 16 µg/mL (≈ 48.9 µM)
- MIC (Escherichia coli [5]): < 0.125 µg/mL
- MIC (Klebsiella pneumoniae [6]): 32 µg/mL (≈ 97.8 µM)
- metabolised at 20 min, 5 µM [7]: 8%
- IC50 (Cytochrome P450 3A4 [8]): > 30 µM
- MIC (Acinetobacter baumannii [9]): 4 to 8 µg/mL (≈ 12.2 to 24.4 µM)
- remaining at 4 h, 1 µM [10]: 80 to 120%
- IC50 [11]: > 30 µM
- Activity (Staphylococcus aureus [12]): Active
- MIC (Staphylococcus aureus [13]): 8 µg/mL (≈ 24.4 µM)
- Ratio (Staphylococcus aureus [14]): 4
- Papp [15]: 0.4 ×10⁻⁶ cm/s
- Ratio (Escherichia coli [16]): 64
- IC50 (Cytochrome P450 3A4 [17]): > 30 µM
- MIC (Klebsiella pneumoniae [18]): 0.5 µg/mL (≈ 1.53 µM)
- MIC (Escherichia coli [19]): 8 µg/mL (≈ 24.4 µM)
- MIC (Klebsiella pneumoniae [20]): 128 µg/mL (≈ 391 µM)
- MIC (Escherichia coli [21]): 0.125 µg/mL (≈ 0.382 µM)
- MIC (Pseudomonas aeruginosa [22]): 32 µg/mL (≈ 97.8 µM)
- Activity (Staphylococcus aureus [23]): Active
- MIC (Staphylococcus aureus [24]): 4 µg/mL (≈ 12.2 µM)
- Activity (L5178Y [25]): Toxic
- MIC (Staphylococcus aureus [26]): 4 µg/mL (≈ 12.2 µM)
- MIC (Escherichia coli [27]): 4 µg/mL (≈ 12.2 µM)
- Ratio (Klebsiella pneumoniae [28]): 8
- metabolised at 20 min, 5 µM [29]: 11%
- solubility thermodynamic [30]: 1130 µg/mL (≈ 3460 µM)
- MIC (Klebsiella pneumoniae [31]): 64 µg/mL (≈ 196 µM)
- Ratio (Staphylococcus aureus [32]): 1
- remaining at 4 h, 1 µM [33]: 80 to 120%
- Ratio (Staphylococcus aureus [34]): 2
- metabolised at 20 min, 5 µM [35]: 6%
- Ratio (Klebsiella pneumoniae [36]): 4
- inhibition (Escherichia coli [37]): Active
- Ratio (Staphylococcus aureus [38]): 1
- IC50 (DNA gyrase): 1.19 µM
- MIC (Staphylococcus aureus [39]): 16 µg/mL (≈ 48.9 µM)
- CC50 at 40 h [40]: > 30 µM
- Ratio (Klebsiella pneumoniae [41]): 4
- Ratio (Escherichia coli [42]): 8
- MIC (Klebsiella pneumoniae [43]): 16 µg/mL (≈ 48.9 µM)
- MIC (Staphylococcus aureus [44]): 4 µg/mL (≈ 12.2 µM)
- MIC (Escherichia coli [45]): 2 µg/mL (≈ 6.11 µM)
- MIC (Staphylococcus aureus [46]): 8 µg/mL (≈ 24.4 µM)
- MIC (Acinetobacter baumannii [47]): > 64 µg/mL
- MIC (Escherichia coli [48]): 512 µg/mL (≈ 1560 µM)
- Ratio (Staphylococcus aureus [49]): 4
- Ratio (Escherichia coli [50]): 32
- MIC (Pseudomonas aeruginosa [51]): < 0.125 µg/mL
